Species: Rattus norvegicus
Assay: Open TG-GATES - Regimen: Single
Type: toxicity, organism-based, Sprague-Dawley
Parameters: regimen Single, gender Male, age 6 weeks
Details: in vivo, iv, 2000 mg/kg, route intravenous injection, dose level High; for APTT / Bas / Eos / Fbg / Hb / Ht / Lym / MCH / MCHC / MCV / Mono / PT / Plat / RBC / Ret / WBC: tissue Blood; for KIDNEY_L / KIDNEY_R / KIDNEY_TOTAL: tissue Kidney; for LIVER: tissue Liver; for ALP / ALT / AST / BUN / CRE / Ca / Cl / DBIL / GLC / IP / K / LDH / Na / PL / RALB / TBIL / TC / TG / TP / gamma-GTP: tissue Plasma

CC(=O)OCC1=C(C(=O)O)N2C(=O)[C@@H](NC(=O)Cc3cccs3)[C@H]2SC1 [CEPHALOTHIN] gave a TERMINAL_BW (3 h) of 214.8 g, an APTT (3 h) of 23.6 s and a Bas (3 h) of 0%. The Eos (3 h) was 0.4%, the Fbg (3 h) was 277.6 mg/dL and the Hb (3 h) was 13.6 g/dL. It also gave a Ht (3 h) of 39.4%, a Lym (3 h) of 66.4% and an MCH (3 h) of 21.1 pg. For the same molecule, the MCHC (3 h) was 34.5%, the MCV (3 h) was 61.3 fL and the Mono (3 h) was 3.6%. For the same molecule, the PT (3 h) was 16.6 s, the Plat (3 h) was 131.7 x10_4/uL and the RBC (3 h) was 644 x10_4/ul. The Ret (3 h) was 6.1%, the WBC (3 h) was 63.2 x10_2/uL and the KIDNEY_L (3 h) was 0.9 g. The KIDNEY_R (3 h) was 1 g, the KIDNEY_TOTAL (3 h) was 1.9 g and the LIVER (3 h) was 9.6 g. It also gave an ALP (3 h) of 1568.4 IU/L, an ALT (3 h) of 46.4 IU/L and an AST (3 h) of 94.6 IU/L. The BUN (3 h) was 12.2 mg/dL, the CRE (3 h) was 0.2 mg/dL and the Ca (3 h) was 10.7 mg/dL. The Cl (3 h) was 104.4 meq/L, the DBIL (3 h) was 0.002 mg/dL and the GLC (3 h) was 173.2 mg/dL. The IP (3 h) was 9.3 mg/dL, the K (3 h) was 4.2 meq/L and the LDH (3 h) was 214.4 IU/L. For the same molecule, the Na (3 h) was 141.8 meq/L, the PL (3 h) was 136 mg/dL and the RALB (3 h) was 2.9 g/dL. The TBIL (3 h) was 0.016 mg/dL, the TC (3 h) was 68.2 mg/dL and the TG (3 h) was 79.8 mg/dL. The TP (3 h) was 5.4 g/dL, the gamma-GTP (3 h) was 1.2 IU/L and the TERMINAL_BW (6 h) was 214.6 g. It also gave an APTT (6 h) of 23 s, a Bas (6 h) of 0% and an Eos (6 h) of 0.4%. The Fbg (6 h) was 279.2 mg/dL, the Hb (6 h) was 13.4 g/dL and the Ht (6 h) was 39.1%. For the same molecule, the Lym (6 h) was 67.4%, the MCH (6 h) was 21 pg and the MCHC (6 h) was 34.3%. It also gave an MCV (6 h) of 61.1 fL, a Mono (6 h) of 3% and a PT (6 h) of 16.3 s. The Plat (6 h) was 121.3 x10_4/uL, the RBC (6 h) was 639.8 x10_4/ul and the Ret (6 h) was 5.9%. For the same molecule, the WBC (6 h) was 81.2 x10_2/uL, the KIDNEY_L (6 h) was 1 g and the KIDNEY_R (6 h) was 1.1 g. For the same molecule, the KIDNEY_TOTAL (6 h) was 2.1 g, the LIVER (6 h) was 9.2 g and the ALP (6 h) was 1347.4 IU/L. The ALT (6 h) was 42.6 IU/L, the AST (6 h) was 95.8 IU/L and the BUN (6 h) was 12 mg/dL. It also gave a CRE (6 h) of 0.1 mg/dL, a Ca (6 h) of 10.6 mg/dL and a Cl (6 h) of 105 meq/L. It also gave a DBIL (6 h) of 0.002 mg/dL, a GLC (6 h) of 171.6 mg/dL and an IP (6 h) of 9.4 mg/dL. It also gave a K (6 h) of 4.4 meq/L, an LDH (6 h) of 182.6 IU/L and a Na (6 h) of 141.2 meq/L. It also gave a PL (6 h) of 145 mg/dL, an RALB (6 h) of 2.9 g/dL and a TBIL (6 h) of 0.022 mg/dL. It also gave a TC (6 h) of 73.6 mg/dL, a TG (6 h) of 136.6 mg/dL and a TP (6 h) of 5.3 g/dL. The gamma-GTP (6 h) was 1.2 IU/L, the TERMINAL_BW (9 h) was 210.5 g and the APTT (9 h) was 21.8 s. For the same molecule, the Bas (9 h) was 0%, the Eos (9 h) was 1% and the Fbg (9 h) was 290.8 mg/dL. It also gave a Hb (9 h) of 13.4 g/dL, a Ht (9 h) of 39.2% and a Lym (9 h) of 70.8%. The MCH (9 h) was 21 pg, the MCHC (9 h) was 34.2% and the MCV (9 h) was 61.4 fL. For the same molecule, the Mono (9 h) was 2.8%, the PT (9 h) was 16.3 s and the Plat (9 h) was 122.1 x10_4/uL. It also gave an RBC (9 h) of 638.8 x10_4/ul, a Ret (9 h) of 5.8% and a WBC (9 h) of 69.5 x10_2/uL. For the same molecule, the KIDNEY_L (9 h) was 1 g, the KIDNEY_R (9 h) was 1 g and the KIDNEY_TOTAL (9 h) was 2 g. The LIVER (9 h) was 8.6 g, the ALP (9 h) was 1382 IU/L and the ALT (9 h) was 39.4 IU/L. For the same molecule, the AST (9 h) was 90 IU/L, the BUN (9 h) was 10.4 mg/dL and the CRE (9 h) was 0.1 mg/dL. It also gave a Ca (9 h) of 10.5 mg/dL, a Cl (9 h) of 106 meq/L and a DBIL (9 h) of 0 mg/dL. For the same molecule, the GLC (9 h) was 176 mg/dL, the IP (9 h) was 9.3 mg/dL and the K (9 h) was 4.5 meq/L. The LDH (9 h) was 162.6 IU/L, the Na (9 h) was 141 meq/L and the PL (9 h) was 134.4 mg/dL. The RALB (9 h) was 2.9 g/dL, the TBIL (9 h) was 0.028 mg/dL and the TC (9 h) was 66.4 mg/dL. It also gave a TG (9 h) of 101.2 mg/dL, a TP (9 h) of 5.3 g/dL and a gamma-GTP (9 h) of 1.2 IU/L. For the same molecule, the TERMINAL_BW (24 h) was 223.7 g, the APTT (24 h) was 21.3 s and the Bas (24 h) was 0%. For the same molecule, the Eos (24 h) was 0.8%, the Fbg (24 h) was 339.2 mg/dL and the Hb (24 h) was 13.5 g/dL. The Ht (24 h) was 38.6%, the Lym (24 h) was 83.6% and the MCH (24 h) was 20.4 pg. The MCHC (24 h) was 34.8%, the MCV (24 h) was 58.4 fL and the Mono (24 h) was 2.4%. For the same molecule, the PT (24 h) was 16.2 s, the Plat (24 h) was 117.9 x10_4/uL and the RBC (24 h) was 661.4 x10_4/ul. The Ret (24 h) was 5.4%, the WBC (24 h) was 77.7 x10_2/uL and the KIDNEY_L (24 h) was 1 g. For the same molecule, the KIDNEY_R (24 h) was 1 g, the KIDNEY_TOTAL (24 h) was 2 g and the LIVER (24 h) was 9 g. For the same molecule, the ALP (24 h) was 1511.8 IU/L, the ALT (24 h) was 44.8 IU/L and the AST (24 h) was 78.6 IU/L. For the same molecule, the BUN (24 h) was 15.6 mg/dL, the CRE (24 h) was 0.2 mg/dL and the Ca (24 h) was 10.6 mg/dL. The Cl (24 h) was 106 meq/L, the DBIL (24 h) was 0.004 mg/dL and the GLC (24 h) was 183 mg/dL. For the same molecule, the IP (24 h) was 7.3 mg/dL, the K (24 h) was 4.4 meq/L and the LDH (24 h) was 162 IU/L. It also gave a Na (24 h) of 142.2 meq/L, a PL (24 h) of 143.8 mg/dL and an RALB (24 h) of 3.1 g/dL. The TBIL (24 h) was 0.02 mg/dL, the TC (24 h) was 74.6 mg/dL and the TG (24 h) was 76 mg/dL. For the same molecule, the TP (24 h) was 5.7 g/dL and the gamma-GTP (24 h) was 1.6 IU/L.

Source: ChEMBL document CHEMBL3885861, “Open TG-GATES”
